Results on three compounds are retold here after patent publication US5759842A, “In vitro HIV integrase inhibitors” (Merck & Co., Inc., priority 1996, dated 1998).

For test [1], the target named is DNP-stimulatedATPase activity of rat liver mitoplast. Conditions: Koenig et al. 1993, read-out: IC50, DNP-stimulated ATPase activity; cited from earlier work.
Test [2] concerns the target DNP-stimulatedATPase activity of rat liver mitochondria. Conditions: Koenig et al. 1993, read-out: IC50, DNP-stimulated ATPase activity; cited from earlier work.
Test [3] deals with HIV Integrase (Human immunodeficiency virus type 1 group M subtype B, UniProt P04585). Nature of the test: Assay for Inhibition of Strand Transfer by HIV Integrase. In kind it is biochemical. As to the method:
Assay for Inhibition of Strand Transfer by HIV Integrase
Inhibition of strand transfer was conducted according to Hazuda, D. J. et al. Nucleic Acids Res., 22, 1121 (1994), hereby incorporated by reference for these purposes.

A word on the IC50: it is the concentration that inhibits the measured activity by half. `CC=CC1C=CC2CC(C)CCC2C1(C)C(O)=C1C(=O)C(CO)N(C)C1=O` (centres unmarked) [Compound A, equisetin]: the IC50 was about 0.008 µM in test [1], about 0.008 µM in test [2] and 7 µM in test [3].

Turning to `CC=CC=CC1C(C)=CC2CC(C)CCC2C1(C)C(O)=C1C(=O)C(CO)N(C)C1=O` (centres unmarked) [Compound B], in test [3], the concentration for half-maximal inhibition (IC50) turned out to be 11 µM.

In test [3], `CCCCCC1C(C)=CC2CC(C)CCC2C1(C)C(O)=C1C(=O)C(CO)N(C)C1=O` (centres unmarked) [Compound C] displayed an IC50 of 5 µM.
